Assay results from patent publication US4450269A, “Mono-5-substituted-3-chloro-4H-1,2,6-thiadiazin-4-one antifungal agents” (FMC Corporation, priority 1980, dated 1984).
Counter-ions that a name gives are not always drawn.

Columns and labels:
Pyricularia oryzae = test: microbe, parasite or virus in culture; type: cell-based; details: for Percent Fungus Growth Inhibition: PO, 72 hours; for inhibition at 5 ppm / inhibition at 10 ppm / inhibition at 20 ppm / inhibition at 40 ppm: Pyricularia oryzae, 72 h; for inhibition at 5 ppm: read-out: Percent Fungus Growth Inhibition, PO, 5 ppm, 72 hours; for inhibition at 10 ppm: read-out: Percent Fungus Growth Inhibition, PO, 10 ppm, 72 hours; for inhibition at 20 ppm: read-out: Percent Fungus Growth Inhibition, PO, 20 ppm, 72 hours; for inhibition at 40 ppm: read-out: Percent Fungus Growth Inhibition, PO, 40 ppm, 72 hours
Uromyces phaseoli = test: whole plant or invertebrate; details: foliar, 24 h, read-out: Percent Disease Control, curative, bean rust

Compound	Percent Fungus Growth Inhibition (Pyricularia oryzae; 5 ppm) [%]	Percent Fungus Growth Inhibition (Pyricularia oryzae; 10 ppm) [%]	Percent Fungus Growth Inhibition (Pyricularia oryzae; 20 ppm) [%]	Percent Fungus Growth Inhibition (Pyricularia oryzae; 40 ppm) [%]	pest or weed control at 150 ppm (Uromyces phaseoli) [%]	inhibition at 5 ppm (Pyricularia oryzae) [%]	inhibition at 10 ppm (Pyricularia oryzae) [%]	inhibition at 20 ppm (Pyricularia oryzae) [%]	inhibition at 40 ppm (Pyricularia oryzae) [%]	Percent Fungus Growth Inhibition (Pyricularia oryzae; 5 ppm, hydrochloride) [%]	Percent Fungus Growth Inhibition (Pyricularia oryzae; 10 ppm, hydrochloride) [%]	Percent Fungus Growth Inhibition (Pyricularia oryzae; 20 ppm, hydrochloride) [%]	Percent Fungus Growth Inhibition (Pyricularia oryzae; 40 ppm, hydrochloride) [%]
3-chloro-5-(bromophenoxy)-4H-1,2,6-thiadiazin-4-one [Compound 33]	53	68	100	100	–	–	–	–	–	–	–	–	–
3-chloro-5-[methylaminocarbonyloxy)phenoxyl]-4H-1,2,6-thiadiazin-4-one [Compound 36]	31	69	100	100	–	–	–	–	–	–	–	–	–
O=c1c(Cl)nsnc1Oc1ccccc1 [Compound 2, 3-chloro-5-phenoxy-4H--1,2,6-thiadiazin-4-one]	–	–	–	–	0	22	26	56	100	–	–	–	–
Cc1ccc(Oc2nsnc(Cl)c2=O)cc1 [Compound 3, 3-chloro-5-(4-methylphenoxy)-4H--1,2,6-thiadiazin-4-one]	–	–	–	–	0	19	41	41	93	–	–	–	–
CC(C)(C)c1ccc(Oc2nsnc(Cl)c2=O)cc1 [Compound 4, 3-chloro-5-(4-tert-butylphnoxy)-4H--1,2,6-thiadiazin-4-one]	–	–	–	–	75	0	0	0	19	–	–	–	–
COc1ccc(Oc2nsnc(Cl)c2=O)cc1 [Compound 5, 3-chloro-5-(4-methoxyphenoxy)4H--1,2,6-thiadiazin-4-one]	–	–	–	–	0	4	22	48	63	–	–	–	–
CCCCOc1ccc(Oc2nsnc(Cl)c2=O)cc1 [Compound 6, 3-chloro-5-(4-n-butoxyphenoxy)-4H--1,2,6-thiadiazin-4-one]	–	–	–	–	90	15	0	19	19	–	–	–	–
CCOC(=O)c1ccc(Oc2nsnc(Cl)c2=O)cc1 [Compound 7, 3-chloro-5-(4-ethoxycarbonylphenoxy)-4H--1,2,6-thiadiazin-4-one]	–	–	–	–	0	19	65	77	81	–	–	–	–
CC(=O)Nc1ccc(Oc2nsnc(Cl)c2=O)cc1 [Compound 8, 5-(4-acetylaminophenoxy)-3-chloro-4H--1,2,6-thiadiazin-4-one]	–	–	–	–	0	23	0	48	74	–	–	–	–
O=c1c(Cl)nsnc1Oc1ccc([N+](=O)[O-])cc1 [Compound 9, 3-chloro-5-(4-nitrophenoxy)-4H--1,2,6-thiadiazin-4-one]	–	–	–	–	0	22	48	70	93	–	–	–	–
N#Cc1ccc(Oc2nsnc(Cl)c2=O)cc1 [Compound 10, 3-chloro-5-(4-cyanophenoxy)-4H--1,2,6-thiadiazin-4-one]	–	–	–	–	0	19	19	58	77	–	–	–	–
O=c1c(Cl)nsnc1Oc1ccc(F)cc1 [Compound 11, 3-chloro-5-(4-fluorophenoxy)-4H--1,2,6-thiadiazin-4-one]	–	–	–	–	0	15	38	54	62	–	–	–	–
O=c1c(Cl)nsnc1Oc1ccc(Cl)cc1 [Compound 12, 3-chloro-5-(4-chlorophenoxy)-4H--1,2,6-thiadiazin-4-one]	–	–	–	–	0	19	30	59	85	–	–	–	–
O=c1c(Cl)nsnc1Oc1cccc(Cl)c1 [Compound 13, 3-chloro-5-(3-chlorophenoxy)-4H--1,2,6-thiadiazin-4-one]	–	–	–	–	90	44	42	74	100	–	–	–	–
O=c1c(Cl)nsnc1Oc1ccccc1Cl [Compound 14, 3-chloro-5-(2-chlorophenoxy)-4H--1,2,6-thiadiazin-4-one]	–	–	–	–	100	23	26	55	100	–	–	–	–
O=c1c(Cl)nsnc1Oc1ccc(Br)cc1 [Compound 15, 3-chloro-5-(4-bromophenoxy)-4H--1,2,6-thiadiazin-4-one]	–	–	–	–	90	12	19	50	58	–	–	–	–
O=c1c(Cl)nsnc1Oc1ccc(Cl)c(Cl)c1 [Compound 16, 3-chloro-5-(3,4-dichlorophenoxy)-4H--1,2,6-thiadiazin-4-one]	–	–	–	–	0	41	48	48	41	–	–	–	–
O=c1c(Cl)nsnc1Oc1ccc(Cl)cc1Cl [Compound 17, 3-chloro-5-(2,4-dichlorophenoxy)-4H--1,2,6-thiadiazin-4-one]	–	–	–	–	100	29	48	29	71	–	–	–	–

Compound	Percent Fungus Growth Inhibition (Pyricularia oryzae; 5 ppm) [%]	Percent Fungus Growth Inhibition (Pyricularia oryzae; 10 ppm) [%]	Percent Fungus Growth Inhibition (Pyricularia oryzae; 20 ppm) [%]	Percent Fungus Growth Inhibition (Pyricularia oryzae; 40 ppm) [%]	pest or weed control at 150 ppm (Uromyces phaseoli) [%]	inhibition at 5 ppm (Pyricularia oryzae) [%]	inhibition at 10 ppm (Pyricularia oryzae) [%]	inhibition at 20 ppm (Pyricularia oryzae) [%]	inhibition at 40 ppm (Pyricularia oryzae) [%]	Percent Fungus Growth Inhibition (Pyricularia oryzae; 5 ppm, hydrochloride) [%]	Percent Fungus Growth Inhibition (Pyricularia oryzae; 10 ppm, hydrochloride) [%]	Percent Fungus Growth Inhibition (Pyricularia oryzae; 20 ppm, hydrochloride) [%]	Percent Fungus Growth Inhibition (Pyricularia oryzae; 40 ppm, hydrochloride) [%]
O=c1c(Cl)nsnc1Oc1c(Cl)cccc1Cl [Compound 18, 3-chloro-5-(2,6-dichlorophenoxy)-4H--1,2,6-thiadiazin-4-one]	–	–	–	–	0	26	32	48	48	–	–	–	–
O=c1c(Cl)nsnc1Oc1cccc(Cl)c1Cl [Compound 19, 3-chloro-5-(2,3-dichlorophenoxy)-4H--1,2,6-thiadiazin-4-one]	–	–	–	–	100	39	48	68	87	–	–	–	–
O=c1c(Cl)nsnc1Oc1cc(Cl)cc(Cl)c1 [Compound 20, 3-chloro-5-(3,5-dichlorophenoxy)-4H--1,2,6-thiadiazin-4-one]	–	–	–	–	0	48	74	68	74	–	–	–	–
Cc1cccc(Oc2nsnc(Cl)c2=O)c1 [Compound 21, 3-chloro-5-(3-methylphenoxy)-4H--1,2,6-thiadiazin-4-one]	–	–	–	–	0	33	33	50	58	–	–	–	–
Cc1ccccc1Oc1nsnc(Cl)c1=O [Compound 22, 3-chloro-5-(2-methylphenoxy)-4H--1,2,6-thiadiazin-4-one]	–	–	–	–	0	21	33	54	63	–	–	–	–
Cc1ccc(Oc2nsnc(Cl)c2=O)c(C)c1 [Compound 23, 3-chloro-5-(2,4-dimethylphenoxy)-4H--1,2,6-thiadiazin-4-one]	–	–	–	–	0	21	42	46	58	–	–	–	–
Cc1cccc(C)c1Oc1nsnc(Cl)c1=O [Compound 24, 3-chloro-5-(2,6-dimethylphenoxy)-4H--1,2,6-thiadiazin-4-one]	–	–	–	–	0	21	42	63	100	–	–	–	–
Cc1cc(C)cc(Oc2nsnc(Cl)c2=O)c1 [Compound 25, 3-chloro-5-(3,5-dimethylphenoxy)-4H--1,2,6-thiadiazin-4-one]	–	–	–	–	0	33	58	54	63	–	–	–	–
Nc1ccc(Oc2nsnc(Cl)c2=O)cc1 [Compound 26, 5-(4-aminophenoxy)-3-chloro-4H--1,2,6-thiadiazin-4-one]	0	48	90	–	0	–	–	–	100	–	–	–	–
Nc1ccc(Oc2nsnc(Cl)c2=O)cc1 [Compound 27, 5-(4-aminophenoxy)-3-chloro-4H--1,2,6-thiadiazine-4-one hydrochloride]	–	–	–	–	–	–	–	–	–	24	24	0	81
CNC(=O)Nc1ccc(Oc2nsnc(Cl)c2=O)cc1 [Compound 28, 3-chloro-5-[4-(3-methylureido)-phenoxy]-4H--1,2,6-thiadiazin-4-one]	–	–	–	–	0	24	24	52	90	–	–	–	–
O=C(Nc1ccccc1)Nc1ccc(Oc2nsnc(Cl)c2=O)cc1 [Compound 29, 3-chloro-5-[4-(3-phenylureido)-phenoxy]-4H--1,2,6-thiadiazin-4-one]	–	–	–	–	0	19	14	0	0	–	–	–	–
O=c1c(Cl)nsnc1Oc1c(Cl)cc(Cl)cc1Cl [Compound 30, 3-chloro-5-(2,4,6-trichlorophenoxy)-4H--1,2,6-thiadiazin-4-one]	–	–	–	–	0	10	71	84	90	–	–	–	–
O=c1c(Cl)nsnc1Oc1c(Cl)c(Cl)c(Cl)c(Cl)c1Cl [Compound 31, 3-chloro-5-(pentachlorophenoxy)-4H--1,2,6-thiadiazine-4-one]	–	–	–	–	0	33	48	62	57	–	–	–	–
O=c1c(Cl)nsnc1Oc1cccc2ccccc12 [Compound 32, 3-chloro-5(1-naphthoxy)-4H-1,2,6-thiadiazin-4-one]	–	–	–	–	0	67	78	100	89	–	–	–	–
O=c1c(Cl)nsnc1Oc1ccccc1Br [Compound 34, 3-chloro-5-(2-bromophenoxy)-4H-1,2,6,-thiadiazin-4-one]	–	–	–	–	0	38	65	100	100	–	–	–	–
O=c1c(Cl)nsnc1Oc1ccc(O)cc1 [Compound 35, 3-chloro-5-(4-hydroxyphenoxy)-4H-1,2,6-thiadiazin-4-one]	–	–	–	–	0	23	38	100	100	–	–	–	–
